# Laboratory results taken from patent US20080064088A1, “DEVICES AND METHODS FOR PHARMACOKINETIC-BASED CELL CULTURE SYSTEM” (priority 2006, published 2008).
# “Also recorded” adds a separate entry of the source.
# What was measured:
# [1] = test system: HCT-116 human colon cancer cells; conditions: for cell death of HCT-116 cells, chip seeded with HCT-116 cells only: no cells in the liver compartment, 24 hours
# Protocol: FIG. 16 Tegafur dose response. […] The chips were treated with indicated concentrations of tegafur for 24 hours. The first graph (FIG. 16A) is a plot of percentage dead cells vs. tegafur or 5-FU concentration after 24 hours of re-circulation on the chip. The second graph (FIG. 16B) is a similar dose response using a traditional in vitro cell culture assay with HCT 116 cells using a 48 hour exposure. HCT-116 cells were seeded on poly-lysine treated glass coverslips and exposed to either tegafur or 5-FU at the indicated concentrations. After a 48 hr incubation, coverslips were treated as described above and the percentage of cell death was determined.
# (§1) LIVE/DEAD stain is a two-component stain consisting of calcein AM and ethidium homodimer. Living cells actively hydrolyze the acetoxymethyl ester (AM) moiety of calcein AM to produce bright green fluorescence of calcein. In contrast, cells that have compromised membrane integrity allow the normally membrane impermeant ethidium homodimer to stain the nucleus of dead or dying cells fluorescent red. The cell permeant nuclear stain, Hoechst 33342 acts as a general stain for all cells. Together with the appropriate filter sets, living cells fluoresce green, dying or dead cells red, and all cells are quantified by a blue nuclear fluorescence. For experiments described herein, trypan blue was used at 0.2% (w/v), calcein AM at 1:20,000, propidium iodide at 1:5,000, and Hoechst 33342 at 10 μg/ml. Cells were visualized with a M2Bio stereofluorescence microscope (Zeiss). All experiments were repeated at least three times and measurements done in triplicate.
# […] Tegafur was added to the re-circulating medium at various concentrations for 24 hours and the cells labeled with Hoechst 33342, a membrane permeable DNA dye, and ethidium homodimer, a membrane impermeable DNA dye (see Methods Section).
# HCT-116 cells = assay: Traditional in vitro cell culture assay, HCT-116 on poly-lysine treated glass coverslips; type: cell-based, human; conditions: for cytotoxicity to HCT-116 cells, traditional cell culture assay: 48 hr incubation
# Protocol: FIG. 16 Tegafur dose response. Chips were seeded with HepG2-C3A cells in the liver compartment and HCT-116 colon cancer cells in the target tissues compartment. The chips were treated with indicated concentrations of tegafur for 24 hours. The first graph (FIG. 16A) is a plot of percentage dead cells vs. tegafur or 5-FU concentration after 24 hours of re-circulation on the chip. The second graph (FIG. 16B) is a similar dose response using a traditional in vitro cell culture assay with HCT 116 cells using a 48 hour exposure. HCT-116 cells were seeded on poly-lysine treated glass coverslips and exposed to either tegafur or 5-FU at the indicated concentrations. After a 48 hr incubation, coverslips were treated as described above and the percentage of cell death was determined.
# To measure the cytotoxic effects of tegafur against colon cancer cells, the microscale chip was prepared with HepG2-C3A cells in the liver compartment and HCT-116 human colon cancer cells in the target tissue compartment. Tegafur was added to the re-circulating medium at various concentrations for 24 hours and the cells labeled with Hoechst 33342, a membrane permeable DNA dye, and ethidium homodimer, a membrane impermeable DNA dye (see Methods Section).
# HCT116 cells [2] = assay: APOPTAG (TUNEL) apoptosis assay on microscale chip system; type: cell-based, human; conditions: 1 μM, 24 hour exposure, compared to untreated controls
# Description: (§2) In contrast to annexin V labeling, the APOPTAG™ kit (Intergen Co., MA) uses terminal deoxynucleotidyl transferase to label free 3′-OH DNA termini exposed during apoptotic DNA degradation and visualization using immunofluorescence (Li, X., Traganos, F., Melamed, M. R., and Darzynkiewicz, Z. (1995). Single-step procedure for labeling DNA strand breaks with flourescein-or BODIPY-conjugated deoxynucleotides: detection of apoptosis and bromodeoxyuridine incorporation. Cytometry 20, 172-180). Although this method is highly specific for apoptosis, the procedure cannot be done on-chip due to the fixation and incubation steps. Briefly, microscale chips were run under specified experimental conditions, the cell chips were removed from their housing units, fixed in 1% paraformaldehyde and processed with the APOPTAG™ kit using the manufacturer's protocol.
# (§3) Two different assays to detect apoptosis were investigated. The first assay was the immunofluorescence-based terminal deoxynucleotidyl transferase BrdU nick end labeling (TUNEL) technique available in kit form as APOPTAG™ (Intergen Co., MA) (see Methods section). The assay was first optimized using cells grown on glass coverslips. Briefly, HepG2/C3A cells were seeded onto poly-D-lysine treated glass coverslips and treated with and without staurosporine. Coverslips were processed as described (see Methods section). […]
# HCT116 cells [3] = assay: LIVE/DEAD cytotoxicity assay on microscale chip system; type: cell-based, human; conditions: 1 μM, 24 hour treatment, compared to untreated control cell chips
# Description: as §1
# Two different assays to detect apoptosis were investigated. The first assay was the immunofluorescence-based terminal deoxynucleotidyl transferase BrdU nick end labeling (TUNEL) technique available in kit form as APOPTAG™ (Intergen Co., MA) (see Methods section).
# HepG2/C3A cells [4] = assay: LIVE/DEAD assay on poly-D-lysine treated glass coverslips; type: cell-based, human; conditions: 1 μM, 24 hours
# Description: as §1
# The LIVE/DEAD assay was optimized (see Methods section) using cells grown on glass coverslips. Briefly, HepG2/C3A cells were seeded onto poly-D-lysine treated glass coverslips and treated with and without 1 μM staurosporine for 24 hours. […]
# HepG2/C3A cells [5] = assay: APOPTAG (TUNEL) apoptosis assay on glass coverslips; type: cell-based, human; conditions: 1 μM, 24-hour incubation, compared to untreated controls
# Description: as §2, §3
# [6] = test system: HepG2/C3A cells in the liver compartment and HCT116 cells in the target tissues compartment; assay: Annexin V-FITC apoptosis assay on microscale chip system; type: cell-based, human; conditions: 1 μM, 6-hour treatment, compared to untreated control cell chips
# Protocol: With the microscale chip, annexin V-FITC labeling was visualized directly on-chin, by first flushing the system with PBS, then recirculating annexin V-FITC (10 μg/ml in annexin V binding buffer, Clontech) for 30 min. Cells were then visualized directly using a FITC filter set.
# The annexin V-FITC was used to detect apoptosis in the microscale chip system as described in the Methods section. Briefly, the microscale chip cell chips were seeded with HepG2/C3A cells in the liver compartment and HCT116 cells in the target tissues compartment. Cell chips were loaded onto the microscale chip system and treated with and without 1 μM staurosporine as described above. After a 6-hour incubation, the re-circulating medium was switched to PBS containing Annexin V-FITC and Hoechst 33342 and allowed to flow through the system for 30 minutes. Cell chips were removed from the acrylic housing and visualized under a fluorescent microscope. Cells were visualized under a fluorescent microscope and fluorescent images of identical fields were obtained using the appropriate filter sets.
# [7] = test system: HT29 human colon cancer cells; assay: Microscale chip, HepG2-C3A liver compartment and HT29 target tissue compartment, live/dead fluorescence; type: cell-based; conditions: 24 hours; for efficacy against HT-29 colon cancer cells (mutant p53) in the chip: chip with HepG2-C3A liver compartment
# Description: as §1
smiles,measurement,setting,value
"O=c1[nH]cc(F)c(=O)[nH]1 [5-FU, 5-fluorouracil]","cell death of HCT-116 cells, chip seeded with HCT-116 cells only",[1],caused substantial cell death
same,"exposure at which cytotoxicity was observed, traditional cell culture assay",HCT-116 cells,48 h
same,"cytotoxicity to HCT-116 cells, traditional cell culture assay",HCT-116 cells,triggered cell death
CN[C@@H]1C[C@H]2O[C@@](C)([C@@H]1OC)n1c3ccccc3c3c4c(c5c6ccccc6n2c5c31)C(=O)NC4 [Staurosporine],apoptosis of HCT116 cells (APOPTAG) on chip,HCT116 cells [2],significant apoptosis (or cytotoxicity)
same,cell death of HCT116 cells (LIVE/DEAD) on chip,HCT116 cells [3],Significant cell death; also recorded: significant apoptosis (or cytotoxicity)
same,cell death of HepG2/C3A cells (LIVE/DEAD),HepG2/C3A cells [4],clearly cause cell death
same,apoptosis of HepG2/C3A cells (APOPTAG),HepG2/C3A cells [5],significant apoptosis
same,apoptosis (annexin V-FITC) on chip,[6],significant apoptosis
"CC1=C(CC(=O)O)c2cc(F)ccc2/C1=C\c1ccc([S+](C)[O-])cc1 (stereo not drawn) [Sulindac, sulindac sulfoxide]",cell death of HT29 cells in the chip,"[7]; One hundred micromoles in re-circulating medium, absence of the HepG2-C3A liver cells",minimal levels of cell death
same,efficacy against HT-29 colon cancer cells (mutant p53) in the chip,[7],effective
"O=c1[nH]c(=O)n(C2CCCO2)cc1F (stereo not drawn) [Tegafur, 5-fluoro-1-(2-tetrahydrofuryl)-2,4(1H,3H)-pyrimidinedione]",efficacy against HT-29 colon cancer cells (mutant p53) in the chip,[7],ineffective
same,cytotoxicity to HCT-116 cells in the microscale chip,[1],cytotoxic to HCT-116 cells in a dose-dependent fashion
same,"exposure at which cytotoxicity was observed, microscale chip",[1],24 h
same,"cell death of HCT-116 cells, chip seeded with HCT-116 cells only",[1],did not cause significant cell death
same,"cytotoxicity to HCT-116 cells, traditional cell culture assay",HCT-116 cells,ineffective
